In patent publication US8389557B2, “Triazole derivatives useful as Axl inhibitors” (Rigel Pharmaceuticals, Inc., priority 2005, dated 2013):

Biological target: T1, Axl (Homo sapiens, UniProt P30530)
T1 construct: endogenous in cells; host or cells: HeLa cells
T1 sequence (P30530 26-894): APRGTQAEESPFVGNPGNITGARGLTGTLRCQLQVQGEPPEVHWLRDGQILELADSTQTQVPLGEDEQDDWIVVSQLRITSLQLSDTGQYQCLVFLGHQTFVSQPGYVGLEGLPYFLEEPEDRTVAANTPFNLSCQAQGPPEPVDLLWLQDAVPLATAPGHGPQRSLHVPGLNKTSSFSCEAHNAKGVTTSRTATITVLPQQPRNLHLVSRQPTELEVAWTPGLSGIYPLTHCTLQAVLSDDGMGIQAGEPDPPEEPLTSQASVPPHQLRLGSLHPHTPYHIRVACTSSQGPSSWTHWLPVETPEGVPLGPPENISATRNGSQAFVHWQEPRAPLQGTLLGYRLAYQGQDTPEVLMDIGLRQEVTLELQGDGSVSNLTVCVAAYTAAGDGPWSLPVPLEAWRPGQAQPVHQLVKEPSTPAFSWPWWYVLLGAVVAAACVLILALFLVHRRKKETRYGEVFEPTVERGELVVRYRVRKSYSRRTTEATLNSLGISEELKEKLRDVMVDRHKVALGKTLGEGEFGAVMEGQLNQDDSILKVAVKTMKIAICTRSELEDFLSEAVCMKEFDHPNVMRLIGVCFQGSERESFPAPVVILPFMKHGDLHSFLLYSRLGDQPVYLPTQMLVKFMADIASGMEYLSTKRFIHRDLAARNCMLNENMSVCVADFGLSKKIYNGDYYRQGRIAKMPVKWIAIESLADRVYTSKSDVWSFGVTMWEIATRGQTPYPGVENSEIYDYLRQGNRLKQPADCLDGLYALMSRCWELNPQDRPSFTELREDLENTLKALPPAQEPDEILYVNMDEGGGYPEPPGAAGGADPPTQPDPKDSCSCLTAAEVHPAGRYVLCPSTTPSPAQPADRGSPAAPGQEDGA
Assay: Phospho-Akt in-cell Western assay (inhibition of Axl activity)
Type: cell-based
Details: Table 2; Hela cells, Axl antibody cross-linking stimulation, phospho-Akt chemiluminescence
In short: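 HeLa cells on poly-L-lysine, starved 24 h in 0.5% FCS DMEM with Axl/Fc 500 ng/mL, pre-treated with compound 1 h at 37° C. Axl stimulated 5 min by anti-Axl/anti-mouse antibody cross-linking. Fixed cells probed with anti-phospho-Akt and HRP secondary, chemiluminescence read.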

| IC50 | Structure (SMILES) |
| --- | --- |
| > 20 µM | Cc1ccc(C(=O)n2nc(N)nc2Nc2ccc(N3CCCC3)cc2)cc1 [compound 301, 3-amino-1-(4-methylphenyl)carbonyl-5-(4-(pyrrolidin-1-yl)phenylamino]-1H-1,2,4-triazole] |
| 1 to 10 µM | CC(C)(C)c1ccc(C(=O)n2nc(N)nc2Nc2ccc(OCCN3CCCC3)cc2)cc1 [compound 303, 3-amino-1-(4-(tert-butyl)phenyl)carbonyl-5-[4-[2-(pyrrolidin-1-yl)ethoxy]phenylamino]-1H-1,2,4-triazole] |
| 10 to 20 µM | Nc1nc(Nc2ccc(OCCN3CCCC3)c(F)c2)n(C(=O)c2ccc(N3CCOCC3)cc2)n1 [compound 304, 3-amino-1-(4-(morpholin-4-yl)phenyl)carbonyl-5-[3-fluoro-4-[2-(pyrrolidin-1-yl)ethoxy]phenylamino]-1H-1,2,4-triazole] |

Same assay, conditions: Table 3; Hela cells, Axl antibody cross-linking stimulation, phospho-Akt chemiluminescence

| IC50 | Structure (SMILES) |
| --- | --- |
| < 1 µM | Nc1nc(Nc2ccc(OCCN3CCCC3)c(F)c2)nn1C(=O)c1ccc2cc[nH]c2c1 [compound 309, 5-amino-1-(1H-indol-6-yl)carbonyl-3-[3-fluoro-4-[2-(pyrrolidin-1-yl)ethoxy]phenylamino]-1H-1,2,4-triazole] |
| > 20 µM | Nc1nc(Nc2ccc(OCCN3CCCC3)cc2)nn1C(=O)c1csnn1 [compound 312, 5-amino-1-(1,2,3-thiadiazol-4-yl)carbonyl-3-[4-[2-(pyrrolidin-1-yl)ethoxy]phenylamino]-1H-1,2,4-triazole] |
| < 1 µM | COc1cc(Nc2nc(N)n(C(=O)c3ccc4cc[nH]c4c3)n2)ccc1OCCN1CCCC1 [compound 318, 5-amino-1-(1H-indol-6-yl)carbonyl-3-[3-methoxy-4-[2-(pyrrolidin-1-yl)ethoxy]phenylamino]-1H-1,2,4-triazole] |
| < 1 µM | Nc1nc(Nc2ccc(OCCN3CCCCCC3)cc2)nn1C(=O)c1ccc2cc[nH]c2c1 [compound 323, 5-amino-1-(1H-indol-6-yl)carbonyl-3-[4-[2-(azepan-1-yl)ethoxy]phenylamino]-1H-1,2,4-triazole] |

Same assay, conditions: Table 7; Hela cells, Axl antibody cross-linking stimulation, phospho-Akt chemiluminescence

| IC50 | Structure (SMILES) |
| --- | --- |
| 1 to 10 µM | Nc1nc(Nc2ccc(OCCN3CCCC3)cc2)nn1C(=S)Nc1c(F)cc(F)cc1F [compound 325, 5-amino-N-(2,4,6-trifluorophenyl)-3-[4-[2-(pyrrolidin-1-yl)ethoxy]phenylamino]-1H-1,2,4-triazole-1-carbothioamide] |
| < 1 µM | Nc1nc(Nc2ccc(OCCN3CCCC3)cc2)nn1C(=S)Nc1c(F)cccc1F [compound 326, 5-amino-N-(2,6-difluorophenyl)-3-[4-[2-(pyrrolidin-1-yl)ethoxy]phenylamino]-1H-1,2,4-triazole-1-carbothioamide] |

Same assay, conditions: inhibition of Axl activity, phospho-Akt in-cell Western assay; Table 1

| Structure (SMILES) | IC50 |
| --- | --- |
| CC(C)(C)Oc1ccc(C(=O)n2nc(Nc3ccc(OCCN4CCCC4)c(F)c3)nc2N)cc1 [compound 305, 5-amino-1-(4-(tert-butoxy)phenyl)carbonyl-3-[3-fluoro-4-[2-(pyrrolidin-1-yl)ethoxy]phenylamino]-1H-1,2,4-triazole] | < 1 µM |
| Nc1nc(Nc2ccc(OCCN3CCCC3)cc2)nn1C(=O)c1cccc(-c2cccs2)c1 [compound 313, 5-amino-1-(3-(thien-2-yl)phenyl)carbonyl-3-[4-[2-(pyrrolidin-1-yl)ethoxy]phenylamino]-1H-1,2,4-triazole] | < 1 µM |
| COc1cc(Nc2nc(N)n(C(=O)c3ccc(OC(C)(C)C)cc3)n2)ccc1OCCN1CCCC1 [compound 317, 5-amino-1-(4-(tert-butoxy)phenyl)carbonyl-3-[3-methoxy-4-[2-(pyrrolidin-1-yl)ethoxy]phenylamino]-1H-1,2,4-triazole] | < 1 µM |
| CC(C)(C)c1ccc(C(=O)n2nc(Nc3ccc(OCCN4CCCCCC4)cc3)nc2N)cc1 [compound 320, 5-amino-1-(4-(tert-butyl)phenyl)carbonyl-3-[4-[2-(azepan-1-yl)ethoxy]phenylamino]-1H-1,2,4-triazole] | < 1 µM |
| CC(C)Oc1ccc(C(=O)n2nc(Nc3ccc(OCCN4CCCCCC4)cc3)nc2N)cc1 [compound 321, 5-amino-1-(4-(iso-propoxy)phenyl)carbonyl-3-[4-[2-(azepan-1-yl)ethoxy]phenylamino]-1H-1,2,4-triazole] | < 1 µM |
| CC(C)(C)Oc1ccc(C(=O)n2nc(Nc3ccc(OCCN4CCCCCC4)cc3)nc2N)cc1 [compound 322, 5-amino-1-(4-(tert-butoxy)phenyl)carbonyl-3-[4-[2-(azepan-1-yl)ethoxy]phenylamino]-1H-1,2,4-triazole] | < 1 µM |
| Nc1nc(Nc2ccc(OCCN3CCCC3)cc2)nn1C(=O)c1cccc(N2CCOCC2)c1 [compound 331, 5-amino-1-(3-(morpholin-4-yl)phenyl)carbonyl-3-[4-[2-(pyrrolidin-1-yl)ethoxy]phenylamino]-1H-1,2,4-triazole] | < 1 µM |
| Nc1nc(Nc2ccc(OCCN3CCCC3)cc2)nn1C(=O)c1ccc(OCCN2CCOCC2)cc1 [compound 332, 5-amino-1-[4-(2-(morpholin-4-yl)ethoxy)phenyl]carbonyl-3-[4-[2-(pyrrolidin-1-yl)ethoxy]phenylamino]-1H-1,2,4-triazole] | < 1 µM |
| CC(C)Oc1ccc(C(=O)n2nc(Nc3ccccc3)nc2N)cc1 [compound 333, 5-amino-1-(4-(iso-propoxy)phenyl)carbonyl-3-(phenylamino)-1H-1,2,4-triazole] | 1 to 10 µM |

Now from value to molecule:

| IC50 | Structure (SMILES) |
| --- | --- |
| < 1 µM | CC(C)(C)c1ccc(C(=O)n2nc(Nc3ccc(OCCN4CCCC4)cc3)nc2N)cc1 [compound 302, 5-amino-1-(4-(tert-butyl)phenyl)carbonyl-3-[4-[2-(pyrrolidin-1-yl)ethoxy]phenylamino]-1H-1,2,4-triazole] |
| < 1 µM | Nc1nc(Nc2ccc(OCCN3CCCC3)c(F)c2)nn1C(=O)c1ccc(-c2csnn2)cc1 [compound 306, 5-amino-1-(4-(1,2,3-thiadiazol-4-yl)phenyl)carbonyl-3-[3-fluoro-4-[2-(pyrrolidin-1-yl)ethoxy]phenylamino]-1H-1,2,4-triazole] |
| < 1 µM | CC(C)Oc1ccc(C(=O)n2nc(Nc3ccc(OCCN4CCCC4)c(F)c3)nc2N)cc1 [compound 307, 5-amino-1-(4-(iso-propoxy)phenyl)carbonyl-3-[3-fluoro-4-[2-(pyrrolidin-1-yl)ethoxy]phenylamino]-1H-1,2,4-triazole] |
| < 1 µM | Nc1nc(Nc2ccc(OCCN3CCCC3)c(F)c2)nn1C(=O)c1ccccc1 [compound 308, 5-amino-1-(phenyl)carbonyl-3-[3-fluoro-4-[2-(pyrrolidin-1-yl)ethoxy]phenylamino]-1H-1,2,4-triazole] |
| < 1 µM | Nc1nc(Nc2ccc(OCCN3CCCC3)cc2)nn1C(=O)c1cccc(-c2nccs2)c1 [compound 310, 5-amino-1-(3-(thiazol-2-yl)phenyl)carbonyl-3-[4-[2-(pyrrolidin-1-yl)ethoxy]phenylamino]-1H-1,2,4-triazole] |
| < 1 µM | Nc1nc(Nc2ccc(OCCN3CCCC3)cc2)nn1C(=O)c1ccc(-c2cccs2)cc1 [compound 311, 5-amino-1-(4-(thien-2-yl)phenyl)carbonyl-3-[4-[2-(pyrrolidin-1-yl)ethoxy]phenylamino]-1H-1,2,4-triazole] |
| < 1 µM | Nc1nc(Nc2ccc(OCCN3CCCC3)cc2)nn1C(=O)c1ccc(-c2ccsc2)cc1 [compound 314, 5-amino-1-(4-(thien-3-yl)phenyl)carbonyl-3-[4-[2-(pyrrolidin-1-yl)ethoxy]phenylamino]-1H-1,2,4-triazole] |
| < 1 µM | COc1cc(Nc2nc(N)n(C(=O)c3ccc(C(C)(C)C)cc3)n2)ccc1OCCN1CCCC1 [compound 315, 5-amino-1-(4-(tert-butyl)phenyl)carbonyl-3-[3-methoxy-4-[2-(pyrrolidin-1-yl)ethoxy]phenylamino]-1H-1,2,4-triazole] |
| < 1 µM | COc1cc(Nc2nc(N)n(C(=O)c3ccc(OC(C)C)cc3)n2)ccc1OCCN1CCCC1 [compound 316, 5-amino-1-(4-(iso-propoxy)phenyl)carbonyl-3-[3-methoxy-4-[2-(pyrrolidin-1-yl)ethoxy]phenylamino]-1H-1,2,4-triazole] |
| < 1 µM | COc1cc(Nc2nc(N)n(C(=O)c3ccc(-c4csnn4)cc3)n2)ccc1OCCN1CCCC1 [compound 319, 5-amino-1-(4-(1,2,3-thiadiazol-4-yl)phenyl)carbonyl-3-[3-methoxy-4-[2-(pyrrolidin-1-yl)ethoxy]phenylamino]-1H-1,2,4-triazole] |
| < 1 µM | Nc1nc(Nc2ccc(OCCN3CCCCCC3)cc2)nn1C(=O)c1ccc(-c2csnn2)cc1 [compound 324, 5-amino-1-(4-(1,2,3-thiadiazol-4-yl)phenyl)carbonyl-3-[4-[2-(azepan-1-yl)ethoxy]phenylamino]-1H-1,2,4-triazole] |
